Consider 10 molecules from patent publication US20250195513A1, “DEGRADATION OF IRAK4 BY CONJUGATION OF IRAK4 INHIBITORS WITH E3 LIGASE LIGAND AND METHODS OF USE” (BeiGene, Ltd., priority 2022, published 2025).

Assay [1] addresses T1, IRAK4 (Homo sapiens, UniProt Q9NWZ3).
T1 construct: endogenous in cells; host or cells: Karpas299
T1 sequence (Q9NWZ3 1-460): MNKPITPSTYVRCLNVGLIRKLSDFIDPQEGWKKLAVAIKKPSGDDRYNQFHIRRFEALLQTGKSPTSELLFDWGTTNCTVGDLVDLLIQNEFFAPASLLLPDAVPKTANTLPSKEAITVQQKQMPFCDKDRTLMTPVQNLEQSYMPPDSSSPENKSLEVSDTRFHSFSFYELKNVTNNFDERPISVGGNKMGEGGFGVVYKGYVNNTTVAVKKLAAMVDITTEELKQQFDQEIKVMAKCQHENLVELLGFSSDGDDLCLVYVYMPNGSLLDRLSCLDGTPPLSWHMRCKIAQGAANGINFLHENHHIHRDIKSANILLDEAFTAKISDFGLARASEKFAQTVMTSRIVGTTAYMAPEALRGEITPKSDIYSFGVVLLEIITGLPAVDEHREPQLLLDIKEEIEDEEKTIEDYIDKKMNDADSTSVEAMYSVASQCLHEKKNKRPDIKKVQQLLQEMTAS
Kind of assay: IRAK4 Degradation Assay (Karpas299, HTRF/TR-FRET). The format is cell-based. The following applies: Karpas-299 cells; for Dmax: maximum percentage of degradation. A digest of the protocol:
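Compound potency as DC50 (IC50) came from four-parameter fits of percent IRAK4 degradation. IRAK4 was measured by HTRF (665/620 nm) in lysates of Karpas299 cells seeded at 0.2 million per well. Cells had been treated with compound dilutions for 5 or 24 h.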

Assay [2] has as its target T1, IRAK4. The experiment in a line: IRAK4 Degradation Assay with Human Serum (Karpas299, HTRF/TR-FRET). The format is cell-based. Conditions: Karpas-299 in human serum, 24 hrs treatment; for DC50: read-out: IRAK4 degradtion with human serum assay DC50; for Dmax: read-out: IRAK4 degradtion with human serum assay Dmax (%). On the procedure:
IRAK4 degradation was measured using a TR-FRET-based method (Degorce, François, et al. Current chemical genomics. 2009, 3: 22). Karpas299 resuspended in Human serum AB (GEMINI, 100-512) were seeded into 96-well plates at the density of 0.2 million cells per well and then treated with a series dilution of compounds. After 24 hrs treatment, cells were pelleted via centrifugation and washed with PBS, add 40 μL lysis buffer (Cisbio) to each well after removal of the supernatant. Plates were then incubated at room temperature with shaking for 30 minutes. A total of 16 μL of cell lysates from each well of a 96-well plate was transferred to a 384-well white assay plate. IRAK4 level was quantitated using the HTRF kit as described by the manufacturer manual (Cisbio). FRET signals were measured using a PHERAstar FSX reader (BMG Labtech).
After treatment, add HTRF lysis buffer to each well; seal the plate and incubate 1 hour at room temperature on a plate shaker; Once the cells are lysed, 16 μL of cell lysate are transferred to a PE 384-well HTRF detection plate; 4 μL of pre-mixed HTRF antibodies are added to each well; Cover the plate with a plate sealer, spin 1000 rpm for 1 min, Incubate overnight at room temperature; Read on BMG PheraStar with HTRF protocol (337 nm-665 nm-620 nm).
The inhibition (degradation) percentage of the compound was calculated by the following equation: […]
The IC50 (DC50) value of a compound can be obtained by fitting the following equation
Wherein, X and Y are known values, and IC50, Hillslope, Top and Bottom are the parameters obtained by fitting with software. Y is the inhibition percentage (calculated from the equation), X is the concentration of the compound; IC50 is the concentration of the compound when the […] is reached. The smaller the IC50 value is, the stronger the inhibitory ability of the compound is. Vice versa, the higher the IC50 value is, the weaker the ability the inhibitory ability of the compound is; Hillslope represents the slope of the fitted curve, generally around 1 *; Bottom represents the minimum value of the curve obtained by data fitting, which is generally 0%±20%; Top represents the maximum value of the curve obtained by data fitting, which is generally 100%±20%. The experimental data were fitted by calculating and analyzing with Dotmatics data analysis software.
(In general: In TR-FRET formats the signal depends on donor and acceptor labels being close together.)

Setting [3] is: 24 h treatment, read-out: IRAK4 in Karpas-299 (24 h) Dmax (%).
[4] abbreviates: 24 h treatment, read-out: IRAK4 in Karpas-299 (24 h) DC50.
[5] abbreviates: 5 h treatment, read-out: IRAK4 in Karpas-299 (5 h) Dmax (%).
Setting [6] is: 5 h treatment, read-out: IRAK4 in Karpas-299 (5 h) DC50.

Consider `COc1cc2nn([C@H]3CC[C@H](N4CCN(C5CCN(c6cc(F)c([C@H]7CCC(=O)NC7=O)c(F)c6)CC5)CC4)CC3)cc2cc1NC(=O)c1ccc2cc(C#N)cnn12` [Example 338, 3-cyano-N-(2-((1r,4r)-4-(4-(1-(4-((R)-2,6-dioxopiperidin-3-yl)-3,5-difluorophenyl)piperidin-4-yl)piperazin-1-yl)cyclohexyl)-6-methoxy-2H-indazol-5-yl)pyrrolo[1,2-b]pyridazine-7-carboxamide], for which the Dmax – broadly, the largest share of the target that was removed – on IRAK4 [1] (setting [3]) amounted to 95%; on IRAK4 [2], 92%. Besides, the DC50 – broadly, the concentration at which degradation of the target reaches its halfway point – at IRAK4 [1] (setting [4]) amounted to 1.1 nM; on IRAK4 [2], 13 nM.
`CC(C)(O)c1cc2nn([C@H]3CC[C@H](N4CCN(C(=O)N5CCN(c6ccc(C7CCC(=O)NC7=O)cc6)CC5)CC4)CC3)cc2cc1NC(=O)c1ccc2cc(C#N)cnn12` (stereo partly shown) [Example 292, 3-cyano-N-(2-((1r,4r)-4-(4-(4-(4-(2,6-dioxopiperidin-3-yl)phenyl)piperazine-1-carbonyl)piperazin-1-yl)cyclohexyl)-6-(2-hydroxypropan-2-yl)-2H-indazol-5-yl)pyrrolo[1,2-b]pyridazine-7-carboxamide]: the figures for the Dmax on IRAK4 [1] (setting [3]) and on IRAK4 [2] were 94% and 95%, respectively. Moreover, the results for the DC50 at IRAK4 [1] (setting [4]) and on IRAK4 [2] were 1.8 nM and 37 nM, respectively.
On to `CC(C)(O)c1cc2nn([C@H]3CC[C@H](N4CCN(C5CN(c6cc(F)c([C@H]7CCC(=O)NC7=O)c(F)c6)C5)CC4)CC3)cc2cc1NC(=O)c1coc2cccnc12` [Example 404, N-(2-((1R,4r)-4-(4-(1-(4-((R)-2,6-dioxopiperidin-3-yl)-3,5-difluorophenyl)azetidin-3-yl)piperazin-1-yl)cyclohexyl)-6-(2-hydroxypropan-2-yl)-2H-indazol-5-yl)furo[3,2-b]pyridine-3-carboxamide], for which the Dmax on IRAK4 [1] (setting [3]) came to 93%; at IRAK4 [2] it was 94%. The DC50 came out at 0.8 nM on IRAK4 [1] (setting [4]) and 5.4 nM on IRAK4 [2].
For the molecule `CC(C)(O)c1cc2nn([C@H]3CC[C@H](N4CCN(C(=O)C5CN(c6ccc(C7CCC(=O)NC7=O)nc6)C5)CC4)CC3)cc2cc1NC(=O)c1ccc2cc(C#N)cnn12` (stereo partly shown) [Example 255, 3-cyano-N-(2-((1r,4r)-4-(4-(1-(6-(2,6-dioxopiperidin-3-yl)pyridin-3-yl)azetidine-3-carbonyl)piperazin-1-yl)cyclohexyl)-6-(2-hydroxypropan-2-yl)-2H-indazol-5-yl)pyrrolo[1,2-b]pyridazine-7-carboxamide], the greatest degradation seen (Dmax) at IRAK4 [1] (setting [5]) came to 96%; on IRAK4 [1] (setting [3]), 97%; at IRAK4 [2], 96%. The figures for the 50% degradation concentration (DC50) at IRAK4 [1] (setting [6]), on IRAK4 [1] (setting [4]) and on IRAK4 [2] were 2.7 nM, 1.2 nM and 7.8 nM, respectively.
`CC(C)(O)c1cc2nn(C34CC(N5CCN(C(=O)[C@@H]6CCN(c7cc(F)c([C@H]8CCC(=O)NC8=O)c(F)c7)C6)CC5)(C3)C4)cc2cc1NC(=O)c1cccc(C(F)(F)F)n1` [Example 152, N-(2-(3-(4-((R)-1-(4-((R)-2,6-dioxopiperidin-3-yl)-3,5-difluorophenyl)pyrrolidine-3-carbonyl)piperazin-1-yl)bicyclo[1.1.1]pentan-1-yl)-6-(2-hydroxypropan-2-yl)-2H-indazol-5-yl)-6-(trifluoromethyl)picolinamide]: the results for the Dmax at IRAK4 [1] (setting [5]), at IRAK4 [1] (setting [3]) and on IRAK4 [2] were 96%, 96% and 98%, respectively. In addition, the DC50 on IRAK4 [1] (setting [6]) came to 3.8 nM; at IRAK4 [1] (setting [4]), 2.1 nM; at IRAK4 [2], 55 nM.
With `CC(C)(O)c1cc2nn(C3CCN(C4CCN(C(=O)C5CN(c6cc(F)c([C@H]7CCC(=O)NC7=O)c(F)c6)C5)CC4)CC3)cc2cc1NC(=O)c1ccc2cc(C#N)cnn12` [Example 346, (R)-3-cyano-N-(2-(1′-(1-(4-(2,6-dioxopiperidin-3-yl)-3,5-difluorophenyl)azetidine-3-carbonyl)-[1,4′-bipiperidin]-4-yl)-6-(2-hydroxypropan-2-yl)-2H-indazol-5-yl)pyrrolo[1,2-b]pyridazine-7-carboxamide], the Dmax at IRAK4 [1] (setting [5]) turned out to be 93%; at IRAK4 [1] (setting [3]), 97%; at IRAK4 [2] it was 99%. In addition, the results for the DC50 at IRAK4 [1] (setting [6]), on IRAK4 [1] (setting [4]) and on IRAK4 [2] were 1.6 nM, 1.4 nM and 5.5 nM, respectively.
Turning to `CC(C)(O)C[C@H]1CN(CCc2cc(F)c([C@H]3CCC(=O)NC3=O)c(F)c2)CCN1[C@H]1CC[C@H](n2cc3cc(NC(=O)c4ccc5cc(C#N)cnn45)c(C(C)(C)O)cc3n2)CC1` [Example 369, 3-cyano-N-(2-((1S,4r)-4-((S)-4-(4-((R)-2,6-dioxopiperidin-3-yl)-3,5-difluorophenethyl)-2-(2-hydroxy-2-methylpropyl)piperazin-1-yl)cyclohexyl)-6-(2-hydroxypropan-2-yl)-2H-indazol-5-yl)pyrrolo[1,2-b]pyridazine-7-carboxamide], the Dmax was 96% at IRAK4 [1] (setting [3]) and 97% at IRAK4 [2]. The DC50 worked out at 0.6 nM at IRAK4 [1] (setting [4]) and 3 nM on IRAK4 [2].
With `COC[C@H]1CN(C2CCN(c3cc(F)c([C@H]4CCC(=O)NC4=O)c(F)c3)CC2)CCN1[C@H]1CC[C@H](n2cc3cc(NC(=O)c4ccc5cc(C#N)cnn45)c(C(C)(C)O)cc3n2)CC1` [Example 324, 3-cyano-N-(2-((1R,4r)-4-((R)-4-(1-(4-((R)-2,6-dioxopiperidin-3-yl)-3,5-difluorophenyl)piperidin-4-yl)-2-(methoxymethyl)piperazin-1-yl)cyclohexyl)-6-(2-hydroxypropan-2-yl)-2H-indazol-5-yl)pyrrolo[1,2-b]pyridazine-7-carboxamide], the results for the Dmax at IRAK4 [1] (setting [3]) and on IRAK4 [2] were 95% and 99%, respectively. In addition, the values for the DC50 at IRAK4 [1] (setting [4]) and on IRAK4 [2] were 1 nM and 23 nM, respectively.
The corresponding values for `C[C@H]1CN(C2CCN(c3cc(F)c([C@H]4CCC(=O)NC4=O)c(F)c3)CC2)CCN1[C@H]1CC[C@H](n2cc3cc(NC(=O)c4ccc5cc(C#N)cnn45)c(C(C)(C)O)cc3n2)CC1` [Example 307, 3-cyano-N-(2-((1S,4r)-4-((S)-4-(1-(4-((R)-2,6-dioxopiperidin-3-yl)-3,5-difluorophenyl)piperidin-4-yl)-2-methylpiperazin-1-yl)cyclohexyl)-6-(2-hydroxypropan-2-yl)-2H-indazol-5-yl)pyrrolo[1,2-b]pyridazine-7-carboxamide] are 100%, 99%, 0.5 nM and 3.6 nM.
In the case of `COC[C@H]1CN([C@H]2CC[C@H](n3cc4cc(NC(=O)c5ccc6cc(C#N)cnn56)c(C(C)(C)O)cc4n3)CC2)CCN1C1CCN(c2ccc(C3CCC(=O)NC3=O)nc2C)CC1` (stereo partly drawn) [Example 422, 3-cyano-N-(2-((1R,4r)-4-((3R)-4-(1-(6-(2,6-dioxopiperidin-3-yl)-2-methylpyridin-3-yl)piperidin-4-yl)-3-(methoxymethyl)piperazin-1-yl)cyclohexyl)-6-(2-hydroxypropan-2-yl)-2H-indazol-5-yl)pyrrolo[1,2-b]pyridazine-7-carboxamide], the Dmax at IRAK4 [1] (setting [3]) and on IRAK4 [2] was 97% throughout. The DC50 came out at 2.1 nM on IRAK4 [1] (setting [4]) and 5.2 nM at IRAK4 [2].
